According to ChEMBL document CHEMBL3593212, “Synthesis and evaluation of novel 1H-pyrrolo[2,3-b]pyridine-5-carboxamide derivatives as potent and orally efficacious immunomodulators targeting JAK3” (Bioorg Med Chem, 2015):

How the values were obtained:
[1] = Oral bioavailability in Sprague-Dawley rat at 3 mg/kg by LC/MS/MS method; assay type: ADME, organism-based; conditions: in vivo
[2] = target: Protein kinase C theta type (Homo sapiens, UniProt Q04759); experiment: Inhibition of PKCtheta (unknown origin)
[3] = AUC (0 to 24 hrs) in Sprague-Dawley rat at 3 mg/kg, po by LC/MS/MS method; assay type: ADME, organism-based; parameters: dose 3 mg/kg, time < 24 hr, route oral; conditions: in vivo
[4] = Total clearance in Sprague-Dawley rat at 1 mg/kg, iv by LC/MS/MS method; assay type: ADME, organism-based; conditions: in vivo
[5] = target: Tyrosine-protein kinase ITK/TSK (Homo sapiens, UniProt Q08881); experiment: Inhibition of ITK (unknown origin)
Chain of Tyrosine-protein kinase ITK/TSK (Q08881 whole entry): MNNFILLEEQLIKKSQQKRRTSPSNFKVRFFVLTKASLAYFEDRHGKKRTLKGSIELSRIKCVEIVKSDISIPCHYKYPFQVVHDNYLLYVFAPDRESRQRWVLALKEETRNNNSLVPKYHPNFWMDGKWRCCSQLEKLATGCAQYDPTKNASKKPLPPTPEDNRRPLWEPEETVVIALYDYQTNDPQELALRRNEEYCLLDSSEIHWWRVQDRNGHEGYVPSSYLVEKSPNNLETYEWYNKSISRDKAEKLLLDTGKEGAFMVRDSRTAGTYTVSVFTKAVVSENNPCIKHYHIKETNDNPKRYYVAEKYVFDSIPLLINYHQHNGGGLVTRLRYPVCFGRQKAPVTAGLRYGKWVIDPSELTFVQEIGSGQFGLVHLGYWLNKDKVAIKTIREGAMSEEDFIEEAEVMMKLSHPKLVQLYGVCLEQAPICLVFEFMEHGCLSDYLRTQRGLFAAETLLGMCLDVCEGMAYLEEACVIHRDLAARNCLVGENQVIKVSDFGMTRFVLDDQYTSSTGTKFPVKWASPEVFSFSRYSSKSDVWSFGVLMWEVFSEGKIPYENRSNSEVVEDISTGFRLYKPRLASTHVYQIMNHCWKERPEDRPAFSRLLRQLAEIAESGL

[6] = target: Tyrosine-protein kinase CSK (Homo sapiens, UniProt P41240); experiment: Inhibition of CSK (unknown origin)
[7] = target: Epidermal growth factor receptor (Homo sapiens, UniProt P00533); experiment: Inhibition of EGFR (unknown origin)
[8] = AUC (0 to 24 hrs) in beagle dog at 1 mg/kg, iv by LC/MS/MS method; assay type: ADME, organism-based, Canis lupus familiaris; parameters: dose 1 mg/kg, time < 24 hr, route intravenous; conditions: in vivo
[9] = target: Ephrin type-A receptor 2 (Homo sapiens, UniProt P29317); experiment: Inhibition of EPHA2 (unknown origin)
Chain of Ephrin type-A receptor 2 (P29317 whole entry): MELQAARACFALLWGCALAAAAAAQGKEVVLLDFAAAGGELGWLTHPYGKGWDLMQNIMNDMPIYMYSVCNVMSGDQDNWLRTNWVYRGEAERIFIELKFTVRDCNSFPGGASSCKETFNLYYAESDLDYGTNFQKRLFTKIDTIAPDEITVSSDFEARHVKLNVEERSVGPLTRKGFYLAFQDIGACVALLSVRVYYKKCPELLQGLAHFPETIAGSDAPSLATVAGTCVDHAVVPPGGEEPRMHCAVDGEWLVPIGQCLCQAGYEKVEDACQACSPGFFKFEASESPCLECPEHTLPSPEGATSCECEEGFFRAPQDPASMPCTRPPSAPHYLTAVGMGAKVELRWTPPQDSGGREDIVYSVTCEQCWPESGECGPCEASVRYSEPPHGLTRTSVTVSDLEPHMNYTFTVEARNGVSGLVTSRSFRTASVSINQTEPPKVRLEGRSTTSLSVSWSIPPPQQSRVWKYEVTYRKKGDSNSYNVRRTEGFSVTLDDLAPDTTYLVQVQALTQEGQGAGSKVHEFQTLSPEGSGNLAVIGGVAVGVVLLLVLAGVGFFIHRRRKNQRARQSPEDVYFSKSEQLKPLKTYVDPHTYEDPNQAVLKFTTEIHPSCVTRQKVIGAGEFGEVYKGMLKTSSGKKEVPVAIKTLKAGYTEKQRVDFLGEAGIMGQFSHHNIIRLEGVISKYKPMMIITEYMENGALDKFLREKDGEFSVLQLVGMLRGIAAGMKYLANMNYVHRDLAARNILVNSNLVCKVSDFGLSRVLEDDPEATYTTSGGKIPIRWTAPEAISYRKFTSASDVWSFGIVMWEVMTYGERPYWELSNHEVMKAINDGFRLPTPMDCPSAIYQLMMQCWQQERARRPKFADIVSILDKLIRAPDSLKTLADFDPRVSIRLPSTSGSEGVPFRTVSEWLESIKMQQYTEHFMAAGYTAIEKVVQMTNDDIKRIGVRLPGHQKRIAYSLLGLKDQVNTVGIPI

[10] = target: Ribosomal protein S6 kinase beta-1 (Homo sapiens, UniProt P23443); experiment: Inhibition of p70S6K (unknown origin)
[11] = Tmax in cynomolgus monkey at 3 mg/kg, po by LC/MS/MS method; assay type: ADME, organism-based, Macaca fascicularis; conditions: in vivo
[12] = target: Angiopoietin-1 receptor (Homo sapiens, UniProt Q02763); experiment: Inhibition of TIE2 (unknown origin)
[13] = target: Bone morphogenetic protein receptor type-1A (Homo sapiens, UniProt P36894); experiment: Inhibition of BMPR1A (unknown origin)
Chain of Bone morphogenetic protein receptor type-1A (P36894 whole entry): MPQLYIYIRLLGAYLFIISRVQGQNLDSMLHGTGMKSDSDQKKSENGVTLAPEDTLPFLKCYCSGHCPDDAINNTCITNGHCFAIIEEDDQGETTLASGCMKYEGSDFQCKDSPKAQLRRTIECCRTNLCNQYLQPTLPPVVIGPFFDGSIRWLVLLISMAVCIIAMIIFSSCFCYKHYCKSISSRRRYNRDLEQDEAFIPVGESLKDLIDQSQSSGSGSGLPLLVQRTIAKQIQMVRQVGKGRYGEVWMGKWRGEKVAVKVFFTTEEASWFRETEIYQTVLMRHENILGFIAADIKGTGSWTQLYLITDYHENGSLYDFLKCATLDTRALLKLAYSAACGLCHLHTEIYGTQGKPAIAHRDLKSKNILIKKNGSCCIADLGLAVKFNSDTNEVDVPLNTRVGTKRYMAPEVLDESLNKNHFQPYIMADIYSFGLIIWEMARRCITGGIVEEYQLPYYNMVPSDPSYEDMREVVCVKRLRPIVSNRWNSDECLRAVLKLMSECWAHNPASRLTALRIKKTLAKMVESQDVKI

[14] = Volume of distribution at steady state in cynomolgus monkey at 1 mg/kg, iv by LC/MS/MS method; assay type: ADME, organism-based, Macaca fascicularis; conditions: in vivo, read-out: Vdss
[15] = target: Receptor tyrosine-protein kinase erbB-2 (Homo sapiens, UniProt P04626); experiment: Inhibition of HER2 (unknown origin)
[16] = Volume of distribution at steady state in beagle dog at 1 mg/kg, iv by LC/MS/MS method; assay type: ADME, organism-based, Canis lupus familiaris; conditions: in vivo, read-out: Vdss
[17] = Volume of distribution at steady state in Sprague-Dawley rat at 1 mg/kg, iv by LC/MS/MS method; assay type: ADME, organism-based; conditions: in vivo, read-out: Vdss
[18] = AUC (0 to 24 hrs) in beagle dog at 3 mg/kg, po by LC/MS/MS method; assay type: ADME, organism-based, Canis lupus familiaris; parameters: time < 24 hr, dose 3 mg/kg, route oral; conditions: in vivo
[19] = target: RAF proto-oncogene serine/threonine-protein kinase (Homo sapiens, UniProt P04049); experiment: Inhibition of RAF1 (unknown origin)
Chain of RAF proto-oncogene serine/threonine-protein kinase (P04049 whole entry): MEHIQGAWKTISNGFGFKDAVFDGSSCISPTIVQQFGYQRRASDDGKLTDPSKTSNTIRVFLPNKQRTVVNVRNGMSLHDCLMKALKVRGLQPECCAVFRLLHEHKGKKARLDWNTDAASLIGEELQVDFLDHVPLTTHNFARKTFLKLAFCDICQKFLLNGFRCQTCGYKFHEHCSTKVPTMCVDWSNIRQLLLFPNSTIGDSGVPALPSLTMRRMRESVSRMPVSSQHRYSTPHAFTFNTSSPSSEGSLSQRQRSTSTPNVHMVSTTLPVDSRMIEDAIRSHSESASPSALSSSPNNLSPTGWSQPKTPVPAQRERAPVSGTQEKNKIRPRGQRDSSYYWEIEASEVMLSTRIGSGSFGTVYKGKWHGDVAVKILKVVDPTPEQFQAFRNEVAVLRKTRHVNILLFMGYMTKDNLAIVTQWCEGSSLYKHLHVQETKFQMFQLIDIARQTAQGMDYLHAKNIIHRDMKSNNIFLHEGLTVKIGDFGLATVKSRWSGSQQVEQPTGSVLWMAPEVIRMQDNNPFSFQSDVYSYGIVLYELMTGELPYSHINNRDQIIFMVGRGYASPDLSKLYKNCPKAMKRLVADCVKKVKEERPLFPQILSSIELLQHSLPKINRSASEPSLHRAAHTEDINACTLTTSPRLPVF

[20] = Cmax in cynomolgus monkey at 3 mg/kg, po by LC/MS/MS method; assay type: ADME, organism-based, Macaca fascicularis; parameters: dose 3 mg/kg, route oral; conditions: in vivo
[21] = Half life in cynomolgus monkey at 1 mg/kg, iv by LC/MS/MS method; assay type: ADME, organism-based, Macaca fascicularis; conditions: in vivo
[22] = test system: Rattus norvegicus; experiment: Inhibition of allograft rejection in Lewis rat vascularized heterotopic cardiac transplantation model using ACI rat as cardiac donor assessed as mean survival time by measuring cardiac allograft function by daily palpation for 28 days at 20 mg/kg, po administered beginning on day of operation once daily for 14 consecutive days (reference value: 5 days); assay type: functional
[23] = target: Tyrosine-protein kinase JAK2 (Homo sapiens, UniProt O60674); experiment: Inhibition of human JAK2 kinase domain using biotin-Lyn-substrate-2 as substrate incubated for 1 hr by ELISA method
[24] = target: Protein kinase C alpha type (Homo sapiens, UniProt P17252); experiment: Inhibition of PKCalpha (unknown origin)
[25] = target: Mitogen-activated protein kinase kinase kinase 1 (Homo sapiens, UniProt Q13233); experiment: Inhibition of MEKK1 (unknown origin)
[26] = target: Tyrosine-protein kinase ABL1 (Homo sapiens, UniProt P00519); experiment: Inhibition of ABL (unknown origin)
[27] = Cmax in Sprague-Dawley rat at 3 mg/kg, po by LC/MS/MS method; assay type: ADME, organism-based; parameters: dose 3 mg/kg, route oral; conditions: in vivo
[28] = target: Dual specificity mitogen-activated protein kinase kinase 1 (Homo sapiens, UniProt Q02750); experiment: Inhibition of MEK1 (unknown origin)
[29] = target: Casein kinase I isoform delta (Homo sapiens, UniProt P48730); experiment: Inhibition of CK1delta (unknown origin)
Chain of Casein kinase I isoform delta (P48730 whole entry, canonical isoform): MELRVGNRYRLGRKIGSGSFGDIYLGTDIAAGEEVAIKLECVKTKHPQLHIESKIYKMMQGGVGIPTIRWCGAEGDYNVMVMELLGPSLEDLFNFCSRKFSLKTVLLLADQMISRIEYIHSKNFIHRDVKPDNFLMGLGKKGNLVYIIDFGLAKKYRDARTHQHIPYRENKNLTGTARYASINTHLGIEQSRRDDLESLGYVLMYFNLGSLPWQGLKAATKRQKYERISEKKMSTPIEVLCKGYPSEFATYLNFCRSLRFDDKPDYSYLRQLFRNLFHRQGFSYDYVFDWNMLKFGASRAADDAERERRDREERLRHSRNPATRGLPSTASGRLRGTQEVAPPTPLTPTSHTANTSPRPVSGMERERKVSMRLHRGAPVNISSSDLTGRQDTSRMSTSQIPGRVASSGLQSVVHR

[30] = Intrinsic clearance in rat liver microsomes at 0.2 uM in presence of NADPH generating system by LC/MS/MS method; assay type: ADME; conditions: read-out: CLH
[31] = Intrinsic clearance in human liver microsomes at 0.2 uM in presence of NADPH generating system by LC/MS/MS method; assay type: ADME; conditions: read-out: CLH
[32] = Tmax in Sprague-Dawley rat at 3 mg/kg, po by LC/MS/MS method; assay type: ADME, organism-based; conditions: in vivo
[33] = Intrinsic clearance in cynomolgus monkey liver microsomes at 0.2 uM in presence of NADPH generating system by LC/MS/MS method; assay type: ADME, Macaca fascicularis; conditions: read-out: CLH
[34] = target: Voltage-gated inwardly rectifying potassium channel KCNH2 (Homo sapiens, UniProt Q12809)
Description: Inhibition of human ERG expressed in CHOK1 cells incubated for 10 mins by Rb efflux assay

[35] = AUC (0 to 24 hrs) in cynomolgus monkey at 1 mg/kg, iv by LC/MS/MS method; assay type: ADME, organism-based, Macaca fascicularis; parameters: time < 24 hr, dose 1 mg/kg, route intravenous; conditions: in vivo
[36] = target: High affinity nerve growth factor receptor (Homo sapiens, UniProt P04629); experiment: Inhibition of TRKA (unknown origin)
[37] = target: Aurora kinase C (Homo sapiens, UniProt Q9UQB9); experiment: Inhibition of AurC (unknown origin)
[38] = target: Serine/threonine-protein kinase Chk1 (Homo sapiens, UniProt O14757); experiment: Inhibition of CHK1 (unknown origin)
[39] = Cmax in beagle dog at 3 mg/kg, po by LC/MS/MS method; assay type: ADME, organism-based, Canis lupus familiaris; parameters: dose 3 mg/kg, route oral; conditions: in vivo
[40] = target: Cyclin-dependent kinase 2/cyclin A (Homo sapiens, UniProt P24941); experiment: Inhibition of CDK2/CycA (unknown origin); assay type: protein-complex assay
[41] = AUC (0 to 24 hrs) in cynomolgus monkey at 3 mg/kg, po by LC/MS/MS method; assay type: ADME, organism-based, Macaca fascicularis; parameters: time < 24 hr, dose 3 mg/kg, route oral; conditions: in vivo
[42] = target: Tyrosine-protein kinase SYK (Homo sapiens, UniProt P43405); experiment: Inhibition of SYK (unknown origin)
[43] = target: Focal adhesion kinase 1 (Homo sapiens, UniProt Q05397); experiment: Inhibition of FAK (unknown origin)
[44] = target: Mitogen-activated protein kinase kinase kinase 9 (Homo sapiens, UniProt P80192); experiment: Inhibition of MLK1 (unknown origin)
[45] = target: RAC-alpha serine/threonine-protein kinase (Homo sapiens, UniProt P31749); experiment: Inhibition of AKT1 (unknown origin)
Chain of RAC-alpha serine/threonine-protein kinase (P31749 whole entry): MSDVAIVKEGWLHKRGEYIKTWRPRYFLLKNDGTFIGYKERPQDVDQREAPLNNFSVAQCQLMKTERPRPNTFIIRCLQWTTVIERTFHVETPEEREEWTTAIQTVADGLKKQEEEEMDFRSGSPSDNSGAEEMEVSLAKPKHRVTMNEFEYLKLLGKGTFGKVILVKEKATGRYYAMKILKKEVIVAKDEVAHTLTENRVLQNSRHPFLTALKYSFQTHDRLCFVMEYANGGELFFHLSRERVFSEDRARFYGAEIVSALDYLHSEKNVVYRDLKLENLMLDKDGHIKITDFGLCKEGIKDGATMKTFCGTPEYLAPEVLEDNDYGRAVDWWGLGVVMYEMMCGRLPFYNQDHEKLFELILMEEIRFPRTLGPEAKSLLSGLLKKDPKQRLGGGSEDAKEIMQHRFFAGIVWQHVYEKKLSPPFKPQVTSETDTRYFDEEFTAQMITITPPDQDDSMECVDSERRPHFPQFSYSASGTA

[46] = Tmax in beagle dog at 3 mg/kg, po by LC/MS/MS method; assay type: ADME, organism-based, Canis lupus familiaris; conditions: in vivo
[47] = target: Rho-associated protein kinase 1 (Homo sapiens, UniProt Q13464); experiment: Inhibition of ROCK1 (unknown origin)
[48] = target: Mitogen-activated protein kinase 10 (Homo sapiens, UniProt P53779); experiment: Inhibition of JNK3 (unknown origin)
[49] = target: Tyrosine-protein kinase BTK (Homo sapiens, UniProt Q06187); experiment: Inhibition of BTK (unknown origin)
Chain of Tyrosine-protein kinase BTK (Q06187 whole entry): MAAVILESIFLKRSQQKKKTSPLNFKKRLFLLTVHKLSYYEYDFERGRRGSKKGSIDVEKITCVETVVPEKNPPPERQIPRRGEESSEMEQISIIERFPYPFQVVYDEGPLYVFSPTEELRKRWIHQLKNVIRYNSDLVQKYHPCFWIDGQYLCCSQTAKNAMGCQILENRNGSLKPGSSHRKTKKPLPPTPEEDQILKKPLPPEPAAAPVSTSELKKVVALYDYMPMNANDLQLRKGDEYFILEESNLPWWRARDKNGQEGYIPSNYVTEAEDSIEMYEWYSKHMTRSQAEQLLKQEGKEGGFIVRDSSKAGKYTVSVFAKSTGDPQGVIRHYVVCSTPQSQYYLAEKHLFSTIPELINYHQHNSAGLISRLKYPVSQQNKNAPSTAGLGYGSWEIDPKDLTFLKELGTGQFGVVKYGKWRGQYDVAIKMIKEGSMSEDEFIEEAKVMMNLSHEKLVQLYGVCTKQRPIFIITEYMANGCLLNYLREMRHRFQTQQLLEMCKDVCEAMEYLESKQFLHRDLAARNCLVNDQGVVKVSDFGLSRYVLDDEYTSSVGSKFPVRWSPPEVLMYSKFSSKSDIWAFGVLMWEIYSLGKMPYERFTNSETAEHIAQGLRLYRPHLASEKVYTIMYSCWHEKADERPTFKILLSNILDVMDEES

[50] = Oral bioavailability in cynomolgus monkey at 3 mg/kg by LC/MS/MS method; assay type: ADME, organism-based, Macaca fascicularis; conditions: in vivo

## N#Cc1ccc(N2CC[C@@H](Nc3c(C(N)=O)cnc4[nH]ccc34)[C@@H](F)C2)nc1
[1]
  bioavailability: 70.7%
[2]
  IC50: 320 nM
[3]
  AUC(0-t) at 24 h: 6780 ng·h/mL
[4]
  clearance: 5.3 mL/min/kg
[5]
  IC50: > 1000 nM
[6]
  IC50: > 1000 nM
[7]
  IC50: > 1000 nM
[8]
  AUC(0-t) at 24 h: 5650 ng·h/mL
[9]
  IC50: > 1000 nM
[10]
  IC50: > 1000 nM
[11]
  Tmax: 5.3 h
[12]
  IC50: > 1000 nM
[13]
  IC50: > 1000 nM
[14]
  Vd: 1.5 L/kg
[15]
  IC50: > 1000 nM
[16]
  Vd: 1 L/kg
[17]
  Vd: 1.1 L/kg
[18]
  AUC(0-t) at 24 h: 8300 ng·h/mL
[19]
  IC50: > 1000 nM
[20]
  Cmax: 684 ng/mL
[21]
  half-life: 5.4 h
[22]
  MST: 22 days
[23]
  IC50: 3.2 nM
[24]
  IC50: 130 nM
[25]
  IC50: > 1000 nM
[26]
  IC50: > 1000 nM
[27]
  Cmax: 633 ng/mL
[28]
  IC50: > 1000 nM
[29]
  IC50: > 1000 nM
[30]
  CLint scaled at 0.2 µM: 27.5 mL/min/kg
[31]
  CLint scaled at 0.2 µM: 4.8 mL/min/kg
[32]
  Tmax: 3.3 h
[33]
  CLint scaled at 0.2 µM: 9.9 mL/min/kg
[34]
  IC50: > 100000 nM
[35]
  AUC(0-t) at 24 h: 4490 ng·h/mL
[36]
  IC50: 470 nM
[37]
  IC50: > 1000 nM
[38]
  IC50: 950 nM
[39]
  Cmax: 666 ng/mL
[40]
  IC50: 590 nM
[41]
  AUC(0-t) at 24 h: 8690 ng·h/mL
[42]
  IC50: > 1000 nM
[43]
  IC50: > 1000 nM
[44]
  IC50: 51 nM
[45]
  IC50: > 1000 nM
[46]
  Tmax: 2.7 h
[47]
  IC50: 190 nM
[48]
  IC50: 560 nM
[49]
  IC50: > 1000 nM
[50]
  bioavailability: 64.3%
